Test results reported in ChEMBL document CHEMBL1201862, “PubChem BioAssay data set” (2004).
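Protocol summary: plate cells (96-well), add compound at 5 concentrations, incubate 48 h, interpolate endpoints linearly. GI50 = concentration required for 50% inhibition of growth.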 Calls of active or inactive are those of the source. No stated cut-off is given here; in the data, active = GI50 up to about 1.1 µM and inactive = higher.

Key:
Experiment in all cases: NCI anticancer screen, dose series, 48 h
PC-3 = tested on: PC-3
Hs-578T = tested on: Hs-578T
UACC-62 = tested on: UACC-62
UACC-257 = tested on: UACC-257
Malme-3M = tested on: Malme-3M
RPMI-8226 = tested on: RPMI-8226
SW-620 = tested on: SW-620
HOP-62 = tested on: HOP-62
BT-549 = tested on: BT-549
NCI-H522 = tested on: NCI-H522
NCI-H23 = tested on: NCI-H23
DU-145 = tested on: DU-145
CCRF-CEM = tested on: CCRF-CEM
HOP-92 = tested on: HOP-92
HCT-15 = tested on: HCT-15
NCI-H226 = tested on: NCI-H226
OVCAR-8 = tested on: OVCAR-8
KM12 = tested on: KM12
SK-MEL-28 = tested on: SK-MEL-28

| SMILES | GI50 (PC-3) | GI50 (Hs-578T) | GI50 (UACC-62) | GI50 (UACC-257) | GI50 (Malme-3M) | GI50 (RPMI-8226) | GI50 (SW-620) | GI50 (HOP-62) | GI50 (BT-549) | GI50 (NCI-H522) | GI50 (NCI-H23) | GI50 (DU-145) | GI50 (CCRF-CEM) | GI50 (HOP-92) | GI50 (HCT-15) | GI50 (NCI-H226) | GI50 (OVCAR-8) | GI50 (KM12) | GI50 (SK-MEL-28) |
| --- | --- | --- | --- | --- | --- | --- | --- | --- | --- | --- | --- | --- | --- | --- | --- | --- | --- | --- | --- |
| CCOC(=O)[C@H](O)[C@@H](O)C(=O)NCc1ccc(C(=O)c2ccccc2)cc1 | > 100 µM (inactive) | > 100 µM (inactive) | > 100 µM (inactive) | > 100 µM (inactive) | > 100 µM (inactive) | > 100 µM (inactive) | > 100 µM (inactive) | > 100 µM (inactive) | > 100 µM (inactive) | > 100 µM (inactive) | > 100 µM (inactive) | > 100 µM (inactive) | > 100 µM (inactive) | > 100 µM (inactive) | > 100 µM | > 100 µM (inactive) | > 100 µM (inactive) | > 100 µM (inactive) | > 100 µM (inactive) |
| CCCCCCC(=O)OC[n+]1ccc(-c2c(COC(=O)NC(C)C)c(COC(=O)NC(C)C)c3n2CCC3)cc1 | > 90.8 µM (inactive) | > 100 µM (inactive) | 37.1 µM (inactive) | > 100 µM (inactive) | > 64.7 µM (inactive) | 38.5 µM (inactive) | 74.5 µM (inactive) | > 64.3 µM (inactive) | > 91 µM (inactive) | 57 µM (inactive) | 48.9 µM (inactive) | > 82.4 µM (inactive) | 24.6 µM (inactive) | 63.5 µM (inactive) | > 100 µM | > 100 µM (inactive) | > 100 µM (inactive) | > 100 µM (inactive) | > 100 µM (inactive) |
| COc1ccccc1OCC(=N/NC(=O)c1ccncc1)/N=C/c1cccnc1 | > 100 µM (inactive) | > 100 µM (inactive) | > 100 µM (inactive) | > 100 µM (inactive) | > 100 µM (inactive) | > 100 µM (inactive) | > 100 µM (inactive) | > 100 µM (inactive) | > 100 µM (inactive) | > 100 µM (inactive) | > 100 µM (inactive) | > 100 µM (inactive) | > 100 µM (inactive) | > 100 µM (inactive) | > 100 µM | > 100 µM (inactive) | > 100 µM (inactive) | > 100 µM (inactive) | > 100 µM (inactive) |
| O=[N+]([O-])C(C(Cl)=C(Cl)Cl)=C(n1nnc2ccccc21)n1nnc2ccccc21 | 37.1 µM (inactive) | 35.8 µM (inactive) | 16.1 µM (inactive) | 48.9 µM (inactive) | 21.7 µM (inactive) | 24.8 µM (inactive) | 5.21 µM (inactive) | 35.7 µM (inactive) | > 51.1 µM (inactive) | 18.5 µM (inactive) | 37.6 µM (inactive) | > 86.3 µM (inactive) | 18.6 µM (inactive) | 43.5 µM (inactive) | 25.9 µM | > 58.7 µM (inactive) | 21.5 µM (inactive) | > 58.5 µM (inactive) | 23.5 µM (inactive) |
| Clc1nc(Cl)c(CBr)c(Cl)n1 | 6.19 µM (inactive) | 3.8 µM (inactive) | 5.08 µM (inactive) | 15 µM (inactive) | 4.16 µM (inactive) | 0.867 µM (active) | 1.89 µM (inactive) | 5.04 µM (inactive) | 2.17 µM (inactive) | 1.5 µM (inactive) | 14.6 µM (inactive) | 16.7 µM (inactive) | 0.427 µM (active) | 2.28 µM (inactive) | 2.65 µM | 8.45 µM (inactive) | 3.27 µM (inactive) | 2.71 µM (inactive) | 5.74 µM (inactive) |
| O=C1CC(=O)c2c(N3CCCC3)sc(N3CCCC3)c21 | > 100 µM (inactive) | > 100 µM (inactive) | > 100 µM (inactive) | > 100 µM (inactive) | > 100 µM (inactive) | > 100 µM (inactive) | > 100 µM (inactive) | > 100 µM (inactive) | > 100 µM (inactive) | 57.4 µM (inactive) | > 100 µM (inactive) | > 100 µM (inactive) | 41.2 µM (inactive) | > 100 µM (inactive) | > 100 µM | > 100 µM (inactive) | > 100 µM (inactive) | > 100 µM (inactive) | > 100 µM (inactive) |
| CCO/C=C1\SC(=S)N(c2ccc(OCC)cc2)C1=O | 57.1 µM (inactive) | 39.9 µM (inactive) | 68.4 µM (inactive) | 78.7 µM (inactive) | 85.7 µM (inactive) | 41.5 µM (inactive) | > 100 µM (inactive) | > 100 µM (inactive) | > 100 µM (inactive) | 67.3 µM (inactive) | > 100 µM (inactive) | 51.4 µM (inactive) | 54 µM (inactive) | 71.4 µM (inactive) | 72.4 µM | 69.7 µM (inactive) | > 100 µM (inactive) | 50.8 µM (inactive) | > 100 µM (inactive) |
| FC(F)(Sc1ncc[nH]1)c1nc2ccccc2o1 | > 100 µM (inactive) | 62.7 µM (inactive) | > 100 µM (inactive) | > 100 µM (inactive) | > 100 µM (inactive) | > 100 µM (inactive) | > 100 µM (inactive) | > 100 µM (inactive) | > 100 µM (inactive) | > 100 µM (inactive) | > 100 µM (inactive) | > 100 µM (inactive) | > 100 µM (inactive) | > 100 µM (inactive) | > 100 µM | > 100 µM (inactive) | > 100 µM (inactive) | > 100 µM (inactive) | > 100 µM (inactive) |
| NNC(=O)CSc1nnc(CCCCCCCCc2nnc(SCC(=O)NN)o2)o1 | > 100 µM (inactive) | > 100 µM (inactive) | > 100 µM (inactive) | > 100 µM (inactive) | > 100 µM (inactive) | > 100 µM (inactive) | > 100 µM (inactive) | > 100 µM (inactive) | > 100 µM (inactive) | > 100 µM (inactive) | > 100 µM (inactive) | > 100 µM (inactive) | > 100 µM (inactive) | > 100 µM (inactive) | > 100 µM | > 100 µM (inactive) | > 100 µM (inactive) | > 100 µM (inactive) | > 100 µM (inactive) |
| CC1CC(C)(C)CC(OCCN2CCCCC2)(c2ccccc2)C1 (stereo not given) | 12.2 µM (inactive) | 13.3 µM (inactive) | 15.6 µM (inactive) | 11.6 µM (inactive) | 10.4 µM (inactive) | 4.51 µM (inactive) | 13.9 µM (inactive) | 13.2 µM (inactive) | 12.7 µM (inactive) | 5.87 µM (inactive) | 10.3 µM (inactive) | 6.61 µM (inactive) | 6.5 µM (inactive) | 8.17 µM (inactive) | 10.2 µM | 20.7 µM (inactive) | 15.2 µM (inactive) | 7.35 µM (inactive) | 15.7 µM (inactive) |
| CCN(CC)CCn1ncc2c3c(=O)c4cccnc4n(CCN(CC)CC)c3ccc21 | > 10 µM (inactive) | 8.67 µM (inactive) | > 10 µM (inactive) | > 10 µM (inactive) | > 10 µM (inactive) | > 10 µM (inactive) | 3.77 µM (inactive) | > 10 µM (inactive) | > 10 µM (inactive) | > 10 µM (inactive) | > 10 µM (inactive) | > 10 µM (inactive) | 4.98 µM (inactive) | > 10 µM (inactive) | 5.25 µM | > 10 µM (inactive) | 7.93 µM (inactive) | 6.19 µM (inactive) | > 10 µM (inactive) |
| Nc1nc(Cl)c(N)c(NCC2(CO)CCC(CCc3ccccc3)C2)n1 (stereo not given) | 17.3 µM (inactive) | 21.1 µM (inactive) | 12.1 µM (inactive) | 0.461 µM (active) | 1.83 µM (inactive) | 14.3 µM (inactive) | 2.08 µM (inactive) | 17 µM (inactive) | 11.1 µM (inactive) | 10.4 µM (inactive) | 0.0435 µM (active) | 21.4 µM (inactive) | 6.21 µM (inactive) | 19.3 µM (inactive) | 16.1 µM | 18.2 µM (inactive) | 14 µM (inactive) | 13.4 µM (inactive) | 14.6 µM (inactive) |
| CC(C(=O)c1ccncc1)c1ccccn1 (stereo not given) | > 100 µM (inactive) | > 100 µM (inactive) | > 100 µM (inactive) | > 100 µM (inactive) | > 100 µM (inactive) | > 100 µM (inactive) | > 100 µM (inactive) | > 100 µM (inactive) | > 100 µM (inactive) | > 100 µM (inactive) | > 100 µM (inactive) | > 100 µM (inactive) | > 100 µM (inactive) | > 100 µM (inactive) | > 100 µM | > 100 µM (inactive) | > 100 µM (inactive) | > 100 µM (inactive) | > 100 µM (inactive) |
| CC(NP(=O)(c1ccccc1)c1ccccc1)c1ccccc1 (stereo not given) | > 100 µM (inactive) | > 100 µM (inactive) | > 100 µM (inactive) | > 100 µM (inactive) | > 100 µM (inactive) | > 100 µM (inactive) | > 100 µM (inactive) | > 100 µM (inactive) | > 100 µM (inactive) | > 100 µM (inactive) | > 100 µM (inactive) | > 100 µM (inactive) | > 100 µM (inactive) | > 100 µM (inactive) | > 100 µM | > 100 µM (inactive) | > 100 µM (inactive) | > 100 µM (inactive) | > 100 µM (inactive) |
| COc1cc(/C=C/c2ccccn2)cc(OC)c1OC | > 10 µM (inactive) | > 10 µM (inactive) | > 10 µM (inactive) | > 10 µM (inactive) | > 10 µM (inactive) | > 10 µM (inactive) | > 10 µM (inactive) | > 10 µM (inactive) | > 10 µM (inactive) | > 10 µM (inactive) | > 10 µM (inactive) | > 10 µM (inactive) | > 10 µM (inactive) | > 10 µM (inactive) | > 10 µM | > 10 µM (inactive) | > 10 µM (inactive) | > 10 µM (inactive) | > 10 µM (inactive) |
